This note sets out measurements from PMC9196629, “Synthesis, Characterization and Antitumor Mechanism Investigation of Heterometallic Ru(Ⅱ)-Re(Ⅰ) Complexes” (Frontiers in Chemistry, 2022).

A short description of data set [1]: Stability in human serum albumin (HSA) solution by UV-Vis spectroscopy. The class given is physicochemical. As to conditions: 10 μM, HSA solution, 0, 24 and 48 h. The protocol:
The stabilities of RuRe-1 and RuRe-2 in PBS and human serum albumin (HSA) were tested through UV–Vis spectroscopy.
Supplementary Figure 12. UV-Vis absorption spectra of RuRe-1 (10 μM), RuRe-2 (10 μM), Ru-1 (10 μM), Ru-2 (10 μM) and Re-1 (10 μM) in PBS (A) and HSA (B) solution collected at 0, 24, and 48 h, respectively.

The next data set relates to HeLa cells. The experiment in a line: Wound healing assay (cell migration). The class given is cell-based, human. As to conditions: 36 h, control 15%. As for the experimental part: Metastasis is a major obstacle to cancer treatment, which will cause the failure of cancer treatment and the death of patients ([Fouani et al., 2017]). Cell migration is the main feature of metastasis. Herein, the effects of RuRe-1 and RuRe-2 on inhibiting cell migration were studied through wound healing. […] After 36 h cultivated, both RuRe-1 and RuRe-2 inhibited cell migration, and the wound closure rates were 3% and 2%, respectively, which were lower than 15% of the control group (Figure 8B).
FIGURE 8 (A) Wound healing of HeLa cells after treated with RuRe-1 (3.1 μM) and RuRe-2 (2.5 μM) for 0, 24, and 36 h. (B) Quantitative data of wound-healing. Wound closure (%) = [1−(width at indicated time)/(width at 0 h)] × 100%. (C) Inhibition of colony formation by RuRe-1 and RuRe-2. (D) Quantitative data of colony formation assays.
Wound healing assay. When reaching 80%–90% confluence, the cells were crossed with a 200 μL pipette tip, then photographed under an inverted microscope to record the width of the scratch. After the cells recovered for 1 h, the serum-free medium containing the indicated concentrations of RuRe-1 and RuRe-2 were added and incubated for a specific time (24 h, 36 h), meantime, the width of the scratch was recorded.

For data set [2], the system named is A549R (cisplatin-resistant A549). The experiment in a line: MTT cytotoxicity assay. In kind it is cell-based, human. Conditions: for IC50: MTT, 48 h incubation, mean ± SD; for fold greater ability to kill A549R cells than cisplatin: ratio of IC50 values, cisplatin / complex. As for the experimental part:
The anticancer activities of RuRe-1 and RuRe-2 against four cancer cell lines: HeLa (human cervical cancer cells), HepG2 (human hepatocellular carcinoma), A549 (human lung cancer cells), A549R (cisplatin-resistant A549) and one normal cell line LO2 (human normal liver cells) were determined by 3-(4,5-dimethylthiazole)-2,5-diphenyltetraazolium bromide (MTT) assay, while the mononuclear complexes Ru-1, Ru-2, Re-1 and cisplatin were selected as controls. […] And the in vitro antiproliferative efficacies of the compounds against HeLa cells were in the following order: RuRe-2 > RuRe-1 > Re-1 > cisplatin > Ru-1 > Ru-2. […] The anticancer activity of the mononuclear rhenium complex Re-1 was between 5.6 μM and 8.0 μM, which contributed the most to the antitumor activities of the heteronuclear Ru(II)-Re(Ⅰ) metal complexes.
Cell lines and culture conditions. HeLa, HepG2, A549, A549R and LO2 cells were purchased from Nanjing KeyGen Biotech., and cultured in DMEM or RPMI 1640 complete medium at 37 ℃ with 5% CO2 atmosphere.
In vitro cytotoxicity assay. The anti-tumor activity of mononuclear complexes Ru-1, Ru-2, Re-1 and heteronuclear RuRe-1 and RuRe-2 were determined by MTT (5 mg/mL) assay. Cells were placed in 96-well plates and cultured for 24 h at 37 ℃ in a 5% CO2 incubator. After replacing the culture medium with fresh medium containing RuRe-1 or RuRe-2 at the indicated concentration, cells were cultured for 48 h. 20 μL MTT was added to each well 4 h before the end of the incubation. Subsequently, the liquid in the cell wells was poured out and 150 μL/well DMSO was added to dissolve the MTT-formazan crystals. The absorbance of living cells at 570 nm was detected.
For orientation: Formazan colour is commonly taken as a measure of viable cells.

The term IC50 denotes the concentration that inhibits the measured activity by half. Higher therefore signals weaker potency.

Each structure is given as a SMILES string.

Consider `F[P-](F)(F)(F)(F)F.F[P-](F)(F)(F)(F)F.F[P-](F)(F)(F)(F)F.[C-]#[O+].[C-]#[O+].[C-]#[O+].[Re+].[Ru+2].c1ccc(-c2ccccn2)nc1.c1ccc(-c2ccccn2)nc1.c1ccc(-c2ccnc3c2ccc2c(-c4ccccc4)ccnc23)cc1.c1cnc2c(c1)c1nc(-c3ccncc3)[nH]c1c1cccnc12` [RuRe-1, [Ru(bpy)2LRe(CO)3(DIP)](PF6)3], for which, in data set [1], the “stability in HSA (UV-Vis spectral characteristics and absorption peaks)” value is given as “no significant change”. Moreover, the wound closure rate with HeLa cells (3.1 μM) is 3%. Further, in data set [2], the IC50 is 10.4 ± 1.2 µM and the “fold greater ability to kill A549R cells than cisplatin” value is “approximately 8.7 fold”.

For the molecule `F[P-](F)(F)(F)(F)F.F[P-](F)(F)(F)(F)F.F[P-](F)(F)(F)(F)F.[C-]#[O+].[C-]#[O+].[C-]#[O+].[Re+].[Ru+2].c1ccc(-c2ccnc3c2ccc2c(-c4ccccc4)ccnc23)cc1.c1cnc2c(c1)c1nc(-c3ccncc3)[nH]c1c1cccnc12.c1cnc2c(c1)ccc1cccnc12.c1cnc2c(c1)ccc1cccnc12` [RuRe-2, [Ru(phen)2LRe(CO)3(DIP)](PF6)3], the “stability in HSA (UV-Vis spectral characteristics and absorption peaks)” value in data set [1] is recorded as “no significant change”. Besides, in the data set on HeLa cells (2.5 μM), the wound closure rate was found to be 2%. Besides, in data set [2], the midpoint of inhibition, the IC50, lay at 16.7 ± 0.8 µM and the “fold greater ability to kill A549R cells than cisplatin” value is ~5.4 fold.
